Test results published in PubChem BioAssay AID1259407 (Chemical Carcinogenesis Research Information System (CCRIS), 2018).
Calls of active or inactive are those of the source. How the calls were made is not given here.

Tested on: CCRIS mutagenicity, Ames/micronucleus/aberration tests
Test: CCRIS mutagenicity studies
[1] = Test System: AMES SALMONELLA TYPHIMURIUM, Strain/Indicator: TA1535, Metabolic Activation: NONE, Method: PREINCUBATION
[2] = Test System: AMES SALMONELLA TYPHIMURIUM, Strain/Indicator: TA1537, Metabolic Activation: NONE, Method: PREINCUBATION
[3] = Test System: AMES SALMONELLA TYPHIMURIUM, Strain/Indicator: TA98, Metabolic Activation: NONE, Method: PREINCUBATION
[4] = Test System: AMES SALMONELLA TYPHIMURIUM, Strain/Indicator: TA98, Metabolic Activation: NONE, Method: STANDARD PLATE
[5] = Test System: AMES SALMONELLA TYPHIMURIUM, Strain/Indicator: TA100, Metabolic Activation: NONE, Method: PREINCUBATION
[6] = Test System: AMES SALMONELLA TYPHIMURIUM, Strain/Indicator: TA100, Metabolic Activation: NONE, Method: STANDARD PLATE

Fc1cc(F)c2cccnc2c1
mutagenic call (Test System: AMES SALMONELLA TYPHIMURIUM, Strain/Indicator: TA100, Metabolic Activation: RAT LIVER S-9, PHENOBARBITAL AND 5,6-BENZOFLAVONE, Method: PREINCUBATION): active; positive

C[n+]1c2cc(N)ccc2cc2ccc(N)cc21
mutagenic call [1]: inactive; negative | mutagenic call (Test System: AMES SALMONELLA TYPHIMURIUM, Strain/Indicator: TA1535, Metabolic Activation: RAT, LIVER, S-9, TETRACHLOROBIPHENYL, Method: PREINCUBATION): inactive; negative | mutagenic call [2]: active; positive | mutagenic call (Test System: AMES SALMONELLA TYPHIMURIUM, Strain/Indicator: TA1537, Metabolic Activation: RAT, LIVER, S-9, TETRACHLOROBIPHENYL, Method: PREINCUBATION): active; positive | mutagenic call (Test System: AMES SALMONELLA TYPHIMURIUM, Strain/Indicator: TA1538, Metabolic Activation: NONE, Method: PREINCUBATION): inactive; negative | mutagenic call (Test System: AMES SALMONELLA TYPHIMURIUM, Strain/Indicator: TA1538, Metabolic Activation: RAT, LIVER, S-9, TETRACHLOROBIPHENYL, Method: PREINCUBATION): active; positive | mutagenic call (Test System: AMES SALMONELLA TYPHIMURIUM, Strain/Indicator: TA1977, Metabolic Activation: NONE, Method: PREINCUBATION): active; positive | mutagenic call (Test System: AMES SALMONELLA TYPHIMURIUM, Strain/Indicator: TA1977, Metabolic Activation: RAT, LIVER, S-9, TETRACHLOROBIPHENYL, Method: PREINCUBATION): active; positive | mutagenic call (Test System: AMES SALMONELLA TYPHIMURIUM, Strain/Indicator: TA1978, Metabolic Activation: NONE, Method: PREINCUBATION): inactive; negative | mutagenic call (Test System: AMES SALMONELLA TYPHIMURIUM, Strain/Indicator: TA1978, Metabolic Activation: RAT, LIVER, S-9, TETRACHLOROBIPHENYL, Method: PREINCUBATION): inactive; negative

C[C@@H]1C[C@@H]([C@H](O)CC2CC(=O)NC(=O)C2)C(=O)[C@@H](C)C1
mutagenic call (Test System: AMES SALMONELLA TYPHIMURIUM, Strain/Indicator: TA97, Metabolic Activation: HAMSTER, LIVER, S-9, AROCLOR 1254 (10 OR 30%), Method: PREINCUBATION): inactive; negative | mutagenic call (Test System: AMES SALMONELLA TYPHIMURIUM, Strain/Indicator: TA97, Metabolic Activation: NONE, Method: PREINCUBATION): inactive; negative | mutagenic call (Test System: AMES SALMONELLA TYPHIMURIUM, Strain/Indicator: TA97, Metabolic Activation: RAT, LIVER, S-9, AROCLOR 1254 (10 OR 30%), Method: PREINCUBATION): inactive; negative | mutagenic call (Test System: AMES SALMONELLA TYPHIMURIUM, Strain/Indicator: TA98, Metabolic Activation: HAMSTER, LIVER, S-9, AROCLOR 1254 (10 OR 30%), Method: PREINCUBATION): inactive; negative | mutagenic call [3]: inactive; negative | mutagenic call [4]: inactive; negative | mutagenic call (Test System: AMES SALMONELLA TYPHIMURIUM, Strain/Indicator: TA98, Metabolic Activation: RAT, LIVER, S-9, AROCLOR 1254 (10 OR 30%), Method: PREINCUBATION): inactive; negative | mutagenic call (Test System: AMES SALMONELLA TYPHIMURIUM, Strain/Indicator: TA98, Metabolic Activation: RAT, LIVER, S-9, AROCLOR, Method: STANDARD PLATE): inactive; negative | mutagenic call (Test System: AMES SALMONELLA TYPHIMURIUM, Strain/Indicator: TA100, Metabolic Activation: HAMSTER, LIVER, S-9, AROCLOR 1254 (10 OR 30%), Method: PREINCUBATION): inactive; negative | mutagenic call [5]: inactive; negative | mutagenic call [6]: inactive; negative | mutagenic call (Test System: AMES SALMONELLA TYPHIMURIUM, Strain/Indicator: TA100, Metabolic Activation: RAT, LIVER, S-9, AROCLOR 1254 (10 OR 30%), Method: PREINCUBATION): inactive; negative | mutagenic call (Test System: AMES SALMONELLA TYPHIMURIUM, Strain/Indicator: TA100, Metabolic Activation: RAT, LIVER, S-9, AROCLOR, Method: STANDARD PLATE): inactive; negative | mutagenic call (Test System: AMES SALMONELLA TYPHIMURIUM, Strain/Indicator: TA1535, Metabolic Activation: HAMSTER, LIVER, S-9, AROCLOR 1254 (10 OR 30%), Method: PREINCUBATION): inactive; negative | mutagenic call [1]: inactive; negative | mutagenic call (Test System: AMES SALMONELLA TYPHIMURIUM, Strain/Indicator: TA1535, Metabolic Activation: RAT, LIVER, S-9, AROCLOR 1254 (10 OR 30%), Method: PREINCUBATION): inactive; negative | mutagenic call (Test System: AMES SALMONELLA TYPHIMURIUM, Strain/Indicator: TA1537, Metabolic Activation: HAMSTER, LIVER, S-9, AROCLOR 1254 (30%), Method: PREINCUBATION): inactive; negative | mutagenic call [2]: inactive; negative | mutagenic call (Test System: AMES SALMONELLA TYPHIMURIUM, Strain/Indicator: TA1537, Metabolic Activation: RAT, LIVER, S-9, AROCLOR 1254 (30%), Method: PREINCUBATION): inactive; negative | mutagenic call (Test System: MOUSE LYMPHOMA, Strain/Indicator: L5178Y (TK+/TK-), Metabolic Activation: NONE, Method: SUSPENSION/PLATE): active; positive

CCOC(=O)N(CCC=O)N=O
mutagenic call [5]: active; positive | mutagenic call (Test System: AMES SALMONELLA TYPHIMURIUM, Strain/Indicator: TA104, Metabolic Activation: NONE, Method: PREINCUBATION): active; positive | mutagenic call [1]: active; positive

CCOc1ccc(NC(N)=O)cc1
mutagenic call (Test System: AMES SALMONELLA TYPHIMURIUM, Strain/Indicator: TA98, Metabolic Activation: HAMSTER, LIVER, S-9, AROCLOR 1254, Method: PREINCUBATION): inactive; negative | mutagenic call [3]: inactive; negative | mutagenic call (Test System: AMES SALMONELLA TYPHIMURIUM, Strain/Indicator: TA98, Metabolic Activation: RAT, LIVER, S-9, AROCLOR 1254, Method: PREINCUBATION): inactive; negative | mutagenic call (Test System: AMES SALMONELLA TYPHIMURIUM, Strain/Indicator: TA100, Metabolic Activation: HAMSTER, LIVER, S-9, AROCLOR 1254, Method: PREINCUBATION): inactive; negative | mutagenic call [5]: inactive; negative | mutagenic call (Test System: AMES SALMONELLA TYPHIMURIUM, Strain/Indicator: TA100, Metabolic Activation: RAT, LIVER, S-9, AROCLOR 1254, Method: PREINCUBATION): inactive; negative | mutagenic call (Test System: AMES SALMONELLA TYPHIMURIUM, Strain/Indicator: TA1535, Metabolic Activation: HAMSTER, LIVER, S-9, AROCLOR 1254, Method: PREINCUBATION): inactive; negative | mutagenic call [1]: inactive; negative | mutagenic call (Test System: AMES SALMONELLA TYPHIMURIUM, Strain/Indicator: TA1535, Metabolic Activation: RAT, LIVER, S-9, AROCLOR 1254, Method: PREINCUBATION): inactive; negative | mutagenic call (Test System: AMES SALMONELLA TYPHIMURIUM, Strain/Indicator: TA1537, Metabolic Activation: HAMSTER, LIVER, S-9, AROCLOR 1254, Method: PREINCUBATION): inactive; negative | mutagenic call [2]: inactive; negative | mutagenic call (Test System: AMES SALMONELLA TYPHIMURIUM, Strain/Indicator: TA1537, Metabolic Activation: RAT, LIVER, S-9, AROCLOR 1254, Method: PREINCUBATION): inactive; negative

[O]c1nccc(=O)[nH]1
mutagenic call [6]: active; positive

CC(Oc1ccc(Cl)cc1Cl)C(=O)O (stereo not given)
mutagenic call (Test System: AMES SALMONELLA TYPHIMURIUM, Strain/Indicator: TA97, Metabolic Activation: NONE, Method: STANDARD PLATE): inactive; negative | mutagenic call (Test System: AMES SALMONELLA TYPHIMURIUM, Strain/Indicator: TA97, Metabolic Activation: RAT, LIVER, S-9, AROCLOR 1254, Method: STANDARD PLATE): inactive; negative | mutagenic call [4]: inactive; negative | mutagenic call (Test System: AMES SALMONELLA TYPHIMURIUM, Strain/Indicator: TA98, Metabolic Activation: RAT, LIVER, S-9, AROCLOR 1254, Method: STANDARD PLATE): inactive; negative | mutagenic call [6]: inactive; negative | mutagenic call (Test System: AMES SALMONELLA TYPHIMURIUM, Strain/Indicator: TA100, Metabolic Activation: RAT, LIVER, S-9, AROCLOR 1254, Method: STANDARD PLATE): inactive; negative | mutagenic call (Test System: AMES SALMONELLA TYPHIMURIUM, Strain/Indicator: TA102, Metabolic Activation: NONE, Method: STANDARD PLATE): inactive; negative | mutagenic call (Test System: AMES SALMONELLA TYPHIMURIUM, Strain/Indicator: TA102, Metabolic Activation: RAT, LIVER, S-9, AROCLOR 1254, Method: STANDARD PLATE): inactive; negative
